Laboratory results: PubChem BioAssay (NCI)
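Growth conditions: 96-well plates. Treatment: test compound, 48 hours, 5 concentrations. Analysis: linear interpolation between bracketing concentrations; unreached endpoints set to highest concentration. GI50 marks 50% less growth. TGI marks complete inhibition of growth.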

What was measured:
Assay in all cases: NCI-60 cell line screen, 48 h
786-0 renal = system: 786-0 renal
A498 renal = system: A498 renal
A549 NSCLC = system: A549 NSCLC
ACHN renal = system: ACHN renal
BT-549 breast = system: BT-549 breast
CAKI-1 renal = system: CAKI-1 renal
CCRF-CEM leukemia = system: CCRF-CEM leukemia
COLO 205 colon = system: COLO 205 colon
DU-145 prostate = system: DU-145 prostate
EKVX NSCLC = system: EKVX NSCLC
HCC-2998 colon = system: HCC-2998 colon
HCT-116 colon = system: HCT-116 colon
HCT-15 colon = system: HCT-15 colon
HL-60(TB) leukemia = system: HL-60(TB) leukemia
HOP-62 NSCLC = system: HOP-62 NSCLC
HOP-92 NSCLC = system: HOP-92 NSCLC
HS 578T breast = system: HS 578T breast
HT29 colon = system: HT29 colon
IGROV1 ovarian = system: IGROV1 ovarian
K-562 leukemia = system: K-562 leukemia
KM12 colon = system: KM12 colon
LOX IMVI melanoma = system: LOX IMVI melanoma
M14 melanoma = system: M14 melanoma
MALME-3M melanoma = system: MALME-3M melanoma
MCF7 breast = system: MCF7 breast
MDA-MB-231 breast = system: MDA-MB-231 breast
MDA-MB-435 = system: MDA-MB-435
MDA-MB-468 breast = system: MDA-MB-468 breast
MOLT-4 leukemia = system: MOLT-4 leukemia
NCI-H226 lung = system: NCI-H226 lung
NCI-H23 lung = system: NCI-H23 lung
NCI-H460 lung = system: NCI-H460 lung
NCI-H522 lung = system: NCI-H522 lung
NCI/ADR-RES ovarian = system: NCI/ADR-RES ovarian
OVCAR-3 ovarian = system: OVCAR-3 ovarian
OVCAR-4 ovarian = system: OVCAR-4 ovarian
OVCAR-5 ovarian = system: OVCAR-5 ovarian
OVCAR-8 ovarian = system: OVCAR-8 ovarian
PC-3 prostate = system: PC-3 prostate
RPMI-8226 leukemia = system: RPMI-8226 leukemia
RXF 393 renal = system: RXF 393 renal
SF-268 CNS = system: SF-268 CNS
SF-295 CNS = system: SF-295 CNS
SF-539 CNS = system: SF-539 CNS
SK-MEL-2 melanoma = system: SK-MEL-2 melanoma
SK-MEL-28 melanoma = system: SK-MEL-28 melanoma
SK-MEL-5 melanoma = system: SK-MEL-5 melanoma
SK-OV-3 ovarian = system: SK-OV-3 ovarian
SN12C renal = system: SN12C renal
SNB-19 CNS = system: SNB-19 CNS
SNB-75 CNS = system: SNB-75 CNS
SR leukemia = system: SR leukemia
SW-620 colon = system: SW-620 colon
T-47D breast = system: T-47D breast
TK-10 renal = system: TK-10 renal
U251 CNS = system: U251 CNS
UACC-257 melanoma = system: UACC-257 melanoma
UACC-62 melanoma = system: UACC-62 melanoma
UO-31 renal = system: UO-31 renal

`Fc1ccc(/C=C/c2nc3ccccc3n3c(-c4ccc(Cl)cc4)nnc23)cc1` showed a GI50 (786-0 renal) of 31.5 µM, a TGI (786-0 renal) of over 100 µM and a GI50 (A498 renal) of over 100 µM. For the same compound, the TGI (A498 renal) was over 100 µM, the GI50 (A549 NSCLC) was 18.8 µM and the TGI (A549 NSCLC) was over 100 µM. For the same compound, the GI50 (ACHN renal) was 13.6 µM, the TGI (ACHN renal) was 46.2 µM and the GI50 (BT-549 breast) was 16 µM. The TGI (BT-549 breast) was 72.6 µM, the GI50 (CAKI-1 renal) was 44.2 µM and the TGI (CAKI-1 renal) was over 100 µM. For the same compound, the GI50 (CCRF-CEM leukemia) was 2.82 µM, the TGI (CCRF-CEM leukemia) was 8.8 µM and the GI50 (COLO 205 colon) was 18.9 µM. The TGI (COLO 205 colon) was 71.4 µM, the GI50 (DU-145 prostate) was 16.6 µM and the TGI (DU-145 prostate) was 53.1 µM. For the same compound, the GI50 (EKVX NSCLC) was 58.3 µM, the TGI (EKVX NSCLC) was over 100 µM and the GI50 (HCC-2998 colon) was 37.9 µM. The TGI (HCC-2998 colon) was over 100 µM, the GI50 (HCT-116 colon) was 12.5 µM and the TGI (HCT-116 colon) was 41.2 µM. The GI50 (HCT-15 colon) was 9.36 µM, the TGI (HCT-15 colon) was 25.4 µM and the GI50 (HL-60(TB) leukemia) was 27.4 µM. It also gave a TGI (HL-60(TB) leukemia) of over 100 µM, a GI50 (HOP-62 NSCLC) of 47.7 µM and a TGI (HOP-62 NSCLC) of over 100 µM. For the same compound, the GI50 (HOP-92 NSCLC) was 24.4 µM, the TGI (HOP-92 NSCLC) was over 100 µM and the GI50 (HS 578T breast) was 29.3 µM. For the same compound, the TGI (HS 578T breast) was over 100 µM, the GI50 (HT29 colon) was 11.8 µM and the TGI (HT29 colon) was 33 µM. The GI50 (IGROV1 ovarian) was 13.8 µM, the TGI (IGROV1 ovarian) was 51.4 µM and the GI50 (K-562 leukemia) was 6.46 µM. It also gave a TGI (K-562 leukemia) of over 100 µM, a GI50 (KM12 colon) of over 100 µM and a TGI (KM12 colon) of over 100 µM. The GI50 (LOX IMVI melanoma) was 1.61 µM, the TGI (LOX IMVI melanoma) was 3.41 µM and the GI50 (M14 melanoma) was 14.2 µM. It also gave a TGI (M14 melanoma) of 32.9 µM, a GI50 (MALME-3M melanoma) of 11.3 µM and a TGI (MALME-3M melanoma) of 24.9 µM. For the same compound, the GI50 (MCF7 breast) was 1.78 µM, the TGI (MCF7 breast) was 34.6 µM and the GI50 (MDA-MB-231 breast) was 20 µM. For the same compound, the TGI (MDA-MB-231 breast) was 88.4 µM, the GI50 (MDA-MB-435) was 26.5 µM and the TGI (MDA-MB-435) was over 100 µM. The GI50 (MDA-MB-468 breast) was 3.78 µM, the TGI (MDA-MB-468 breast) was 20.2 µM and the GI50 (MOLT-4 leukemia) was 3.74 µM. The TGI (MOLT-4 leukemia) was 34.9 µM, the GI50 (NCI-H226 lung) was 31.5 µM and the TGI (NCI-H226 lung) was over 100 µM. The GI50 (NCI-H23 lung) was 17.1 µM, the TGI (NCI-H23 lung) was 53 µM and the GI50 (NCI-H460 lung) was 25.3 µM. For the same compound, the TGI (NCI-H460 lung) was over 100 µM, the GI50 (NCI-H522 lung) was 1.47 µM and the TGI (NCI-H522 lung) was 3.01 µM. It also gave a GI50 (NCI/ADR-RES ovarian) of 30.4 µM, a TGI (NCI/ADR-RES ovarian) of over 100 µM and a GI50 (OVCAR-3 ovarian) of 23 µM. It also gave a TGI (OVCAR-3 ovarian) of over 100 µM, a GI50 (OVCAR-4 ovarian) of 20.1 µM and a TGI (OVCAR-4 ovarian) of 95.6 µM. The GI50 (OVCAR-5 ovarian) was 23.3 µM, the TGI (OVCAR-5 ovarian) was over 100 µM and the GI50 (OVCAR-8 ovarian) was 16.2 µM. The TGI (OVCAR-8 ovarian) was 80.4 µM, the GI50 (PC-3 prostate) was 30.4 µM and the TGI (PC-3 prostate) was over 100 µM. The GI50 (RPMI-8226 leukemia) was 16.7 µM, the TGI (RPMI-8226 leukemia) was over 100 µM and the GI50 (RXF 393 renal) was 10.8 µM. The TGI (RXF 393 renal) was 72.5 µM, the GI50 (SF-268 CNS) was 67.7 µM and the TGI (SF-268 CNS) was over 100 µM. The GI50 (SF-295 CNS) was over 100 µM, the TGI (SF-295 CNS) was over 100 µM and the GI50 (SF-539 CNS) was 16.8 µM. The TGI (SF-539 CNS) was 40.6 µM, the GI50 (SK-MEL-2 melanoma) was 40.1 µM and the TGI (SK-MEL-2 melanoma) was over 100 µM. The GI50 (SK-MEL-28 melanoma) was 54.4 µM, the TGI (SK-MEL-28 melanoma) was over 100 µM and the GI50 (SK-MEL-5 melanoma) was 29.1 µM. For the same compound, the TGI (SK-MEL-5 melanoma) was over 100 µM, the GI50 (SK-OV-3 ovarian) was 62.6 µM and the TGI (SK-OV-3 ovarian) was over 100 µM. It also gave a GI50 (SN12C renal) of 13.5 µM, a TGI (SN12C renal) of 34.3 µM and a GI50 (SNB-19 CNS) of 51 µM. It also gave a TGI (SNB-19 CNS) of over 100 µM, a GI50 (SNB-75 CNS) of 4.47 µM and a TGI (SNB-75 CNS) of over 100 µM. It also gave a GI50 (SR leukemia) of 2.44 µM, a TGI (SR leukemia) of 19.7 µM and a GI50 (SW-620 colon) of 11.3 µM. For the same compound, the TGI (SW-620 colon) was 25.7 µM, the GI50 (T-47D breast) was 14.3 µM and the TGI (T-47D breast) was over 100 µM. It also gave a GI50 (TK-10 renal) of 36.9 µM, a TGI (TK-10 renal) of over 100 µM and a GI50 (U251 CNS) of 18.4 µM. For the same compound, the TGI (U251 CNS) was 88.6 µM, the GI50 (UACC-257 melanoma) was 38.6 µM and the TGI (UACC-257 melanoma) was over 100 µM. The GI50 (UACC-62 melanoma) was 21 µM, the TGI (UACC-62 melanoma) was over 100 µM and the GI50 (UO-31 renal) was 14.1 µM. It also gave a TGI (UO-31 renal) of over 100 µM.
